Source: article PMC5688144, “Assay interference and off-target liabilities of reported histone acetyltransferase inhibitors” (Nature Communications, 2017)
Read-outs that look alike come from different tables or passages of the source.

Assays:
GCN5 = details: cited from earlier work
PCAF = biological target: T1, PCAF (Homo sapiens, UniProt Q92831); details: cited from earlier work
T1 construct: Reaction Biology Corporation (assays run by this contract lab)

[1] = tested on: H3K27ac levels in HEK293T and MCF7 cells; experiment: Cellular H3K27ac western blot; assay type: cell-based; details: 10 and 30 μM compound
Protocol: Cells were cultured in DMEM supplemented with 10% fetal bovine serum (Winsent), penicillin (100 U mL^−1), and streptomycin (100 µg mL^−1). Compounds dissolved in DMSO or matching DMSO-only controls were added to cells for indicated times. Compound effects in cells were determined as described[67] and are outlined below.
For western blot analyses, cells were lysed in lysis buffer (20 mM Tris–HCl, pH 8, 150 mM NaCl, 1 mM EDTA, 10 mM MgCl2, 0.5% Triton X-100 (v/v), 12.5 U mL^−1 benzonase (Sigma), complete EDTA-free protease inhibitor cocktail (Roche)). After 3 min incubation at RT, SDS was added to final 1% concentration (w/v). Total cell lysates were resolved in 4–12% Bis-Tris protein gels (Invitrogen) with MOPS buffer (Invitrogen) and transferred for 1.5 h (80 V) onto PVDF membrane (Millipore) in tris-glycine transfer buffer containing 20% methanol and 0.05% SDS. Blots were blocked for 1 h in blocking buffer (5% milk in 0.1% Tween 20/PBS) and incubated with respective primary antibodies: H3K27ac (1:1000, CST #8173), H3 (1:1000, Abcam #10799), p300 (1:2000, Bethyl #A300-358A), CBP (1:1000, Bethyl #A300-362A), actin (1:3000, Abcam #3280), α-tubulin (1:1000, 12G10 DHSB), and α-tubulin-K40ac (1:2000, Abcam #179484) in blocking buffer overnight at 4 °C. After five washes with 0.1% Tween 20/PBS, the blots were incubated with goat anti-rabbit IgG (IRDye 800-conjugated, LiCor #926-32211) and donkey anti-mouse IgG (IRDye 680-conjugated, LiCor #926-68072) antibodies (1:5000) in Odyssey Blocking Buffer (LiCor) for 1 h at RT and washed with 0.1% Tween 20/PBS. The signal was read on an Odyssey scanner (LiCor) at 800 and 700 nm. Representative uncropped images with molecular weight markers are provided (Supplementary Figs. 9, 12, 13).

five tested HATs = experiment: HAT selectivity panel with DTT (Reaction Biology); assay type: biochemical; details: 10 μM compound; DTT in reaction buffer
Protocol: Selectivity profiles vs. HATs, HDACs, SIRTs, HMTs, proteases, kinases, and phosphatases were performed by Reaction Biology Corporation (Malvern, PA; Fig. 3 and Supplementary Fig. 3). Percent activity was normalized to DMSO-only controls. Reference control compounds were included in each assay.
Relevant reaction procedures for each target class are briefly summarized (see reactionbiology.com for additional details). HATs: reaction buffer 50 mM Tris–HCl, pH 8.0, 50 mM NaCl, 0.1 mM EDTA, ± 1 mM DTT, 1 mM PMSF, 1% DMSO; substrate [^3H]-acetyl-CoA; reaction time 1 h; end-point measurement. HDACs: reaction buffer 50 mM Tris–HCl, pH 8.0, 137 mM NaCl, 2.7 mM KCl, 1 mM MgCl2, 1 mg mL^−1 BSA, 1% DMSO; fluorogenic substrate p53 residues 379–382 (RHKK(Ac)-AMC) (HDAC1/2/3/6/10), fluorogenic substrate p53 residues 379–382 (RHK(Ac)K(Ac)AMC) (HDAC8); fluorogenic substrate trifluoroacetyl lysine (HDAC4/5/7/9/11); pre-incubation included; reaction time 1–2 h; trichostatin A or TMP269 quencher; fluorescent readout λexcite = 360 nm, λemission = 460 nm; end-point measurement. SIRTs: reaction buffer 50 mM Tris–HCl, pH 8.0, 137 mM NaCl, 2.7 mM KCl, 1 mM MgCl2, 1 mg mL^−1 BSA, 1% DMSO; fluorogenic substrate p53 residues 379–382 (RHKK(Ac)-AMC) (SIRT1/2/3); fluorogenic substrate Ac-Lys(Succ)-AMC (SIRT5); substrate: 500 µM NAD^+; reaction time 2 h; nicotinamide quencher; fluorescent readout λexcite = 360 nm, λemission = 460 nm; end-point measurement (1.5 h development). HMTs: reaction buffer 50 mM Tris–HCl, pH 8.0, 0.01% Brij35, 1 mM EDTA, 1 mM DTT, 1 mM PMSF, 1% DMSO (EZH2); reaction buffer 50 mM Tris–HCl, pH 7.5, 5 mM EDTA, 0.01% Brij35, 5 mM DTT, 0.1 mM PMSF, 5% glycerol, 1% DMSO; 50 mM Tris–HCl, pH 8.5, 5 mM MgCl2, 50 mM NaCl, 0.01 Brij35, 1 mM DTT, 1% DMSO (G9a); methyl donor 1 μM S-Adenosyl-L-[methyl-^3H]-methionine; substrate 5 μM histone proteins or 0.05 mg mL^−1 nucleosomes; pre-incubation time 10–15 min; reaction time 0.5–1 h; end-point measurement. Caspases: reaction buffer 50 mM HEPES, pH 7.4, 1 M citrate, 100 mM NaCl, 0.01% CHAPS, 0.1 mM EDTA, 10 mM DTT; fluorogenic peptide substrate; pre-incubation time 10 min; reaction time 2 h; time-course measurement. Kinases: reaction buffer 20 mM HEPES, pH 7.5, 10 mM MgCl2, 1 mM EGTA, 0.02% Brij35, 0.02 mg mL^−1 BSA, 0.1 mM Na3VO4, 2 mM DTT, 1% DMSO; substrate [^33P]-ATP; reaction time 2 h; end-point measurement.

CBP = details: cited from earlier work; for IC50: original report, 22 (Supplementary References)
Tip60 = details: cited from earlier work; for IC50: original report, 24 (Supplementary References)
[2] = @ 10 µM, ref 5 (Supplementary References)
[3] = @ 100 µM, 20 (Supplementary References)
[4] = original report, 22 (Supplementary References)
[5] = @ 5 µM, ref 16 (Supplementary References)
[6] = original report, 27 (Supplementary References)

T1 sequence (Q92831 whole entry, species assumed): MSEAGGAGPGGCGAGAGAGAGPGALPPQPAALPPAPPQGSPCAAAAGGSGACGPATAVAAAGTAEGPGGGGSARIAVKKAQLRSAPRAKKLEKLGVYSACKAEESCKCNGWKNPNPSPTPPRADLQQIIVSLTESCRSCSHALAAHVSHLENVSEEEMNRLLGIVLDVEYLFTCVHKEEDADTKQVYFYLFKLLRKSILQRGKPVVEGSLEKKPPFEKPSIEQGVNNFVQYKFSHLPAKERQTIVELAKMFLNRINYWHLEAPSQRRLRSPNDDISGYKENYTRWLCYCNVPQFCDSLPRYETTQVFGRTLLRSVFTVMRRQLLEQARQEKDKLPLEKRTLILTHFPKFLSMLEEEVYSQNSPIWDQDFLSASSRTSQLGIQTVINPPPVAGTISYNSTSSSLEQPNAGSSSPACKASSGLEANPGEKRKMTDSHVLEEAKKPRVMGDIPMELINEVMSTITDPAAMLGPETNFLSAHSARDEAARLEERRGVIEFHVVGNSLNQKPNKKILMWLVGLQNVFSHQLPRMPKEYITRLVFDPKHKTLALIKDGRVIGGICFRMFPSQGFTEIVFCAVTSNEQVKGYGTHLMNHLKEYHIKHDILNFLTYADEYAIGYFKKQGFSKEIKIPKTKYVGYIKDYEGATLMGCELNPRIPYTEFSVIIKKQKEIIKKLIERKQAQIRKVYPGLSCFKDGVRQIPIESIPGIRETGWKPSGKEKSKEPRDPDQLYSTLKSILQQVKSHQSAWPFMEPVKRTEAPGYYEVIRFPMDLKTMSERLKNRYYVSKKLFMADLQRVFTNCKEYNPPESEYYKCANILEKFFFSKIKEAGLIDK

## CC1=NN(c2ccc(C(=O)O)cc2)C(=O)/C1=C/c1ccc(-c2cc(C)c(C)cc2[N+](=O)[O-])o1 [Compound 1, C646]
GCN5; [2]
  % inhibition, GCN5: < 10%
PCAF; [2]
  % inhibition, PCAF: < 10%
[1]
  cellular H3K27ac levels: decreased
Five tested HATs
  activity vs. the five tested HATs: potent inhibition of at least one HAT

## O=c1c2cccnc2sn1Cc1ccc(C(F)(F)F)cc1 [Compound 3, PU141]
PCAF; H4 peptide substrate, ref 7 (Supplementary References)
  IC50: 35.5 µM
Five tested HATs
  activity vs. the five tested HATs: minimal activity

## Cc1cc(O)cc(C)c1C=C1C(=O)N(Cc2ccccc2)C(=O)N(Cc2ccccc2)C1=O [Compound 4, EML425]
CBP
  IC50: 1.1 µM
[1]
  cellular H3K27ac levels: did not perturb
Five tested HATs
  activity vs. the five tested HATs: potent inhibition of at least one HAT

## COc1ccc(S(=O)(=O)ON=C2C=C(C)C(=O)C(C)=C2)cc1 [Compound 5, L002]
GCN5; HotSpot assay, ref 9 (Supplementary References)
  IC50: 33.9 µM
CBP; @ 100 µM, ref 9 (Supplementary References)
  % inhibition, CBP: 32%
Tip60; [3]
  % inhibition, Tip60: 2%
[1]
  cellular H3K27ac levels: decreased

## C=C1C(=O)O[C@H](CCC)[C@H]1C(=O)O [Compound 6, MB-3]
GCN5; [4]
  IC50: 100 µM
CBP
  IC50: 500 µM

## Clc1ccc(-c2csc(NN=C3CCCC3)n2)cc1 [Compound 7, CPTH2]
GCN5; [4]
  IC50: ~500 µM

## CCCCCCCCCCCC1=C(O)C(=O)C=C(O)C1=O [Compound 9, Embelin]
Tip60; @ 25 µM, ref 13 (Supplementary References)
  % inhibition, Tip60: 25%

## O=C(O[C@@H]1Cc2c(O)cc(O)cc2O[C@@H]1c1cc(O)c(O)c(O)c1)c1cc(O)c(O)c(O)c1 [Compound 10, (-)-Epigallocatechin gallate]
CBP
  IC50: 50 µM
Tip60
  IC50: 70 µM

## COc1cc(/C=C/C(=O)CC(=O)/C=C/c2ccc(O)c(OC)c2)ccc1O [Compound 11, Curcumin]
PCAF; @ 100 µM, ref 15 (Supplementary References)
  % inhibition, PCAF: < 10%

## O=C1/C(=C/c2ccc(O)c(Br)c2)CCC/C1=C\c1ccc(O)c(Br)c1 [Compound 12, HAT inhibitor II]
GCN5; [5]
  % inhibition, GCN5: 30%
PCAF; [5]
  % inhibition, PCAF: < 1%
Five tested HATs
  activity vs. the five tested HATs: potent inhibition of at least one HAT

## CCCCCCCCCCCCCCCc1cccc(O)c1C(=O)O [Compound 14, Anacardic acid]
[1]
  cellular H3K27ac levels: did not perturb

## CCCCCCCc1ccc(CCc2cccc(O)c2C(=O)O)cc1 [Compound 15, MG 149]
PCAF; @ 200 µM, ref 19 (Supplementary References)
  % inhibition, PCAF: 3%
Tip60
  IC50: 74 µM

## Cc1cc2c(C(C)C)c(O)c(O)c(C=O)c2c(O)c1-c1c(C)cc2c(C(C)C)c(O)c(O)c(C=O)c2c1O [Compound 16, Gossypol]
PCAF; [6]
  IC50: ~50 µM
CBP
  IC50: ~25 µM
Tip60; [3]
  % inhibition, Tip60: < 10%

## COc1cc(/C=C/c2cc(/C=C/c3ccc(O)c(OC)c3)n(-c3ccc(C(=O)[O-])cc3)n2)ccc1O.[Na+] [Compound 17, CTK7A]
GCN5; @ 40 µM, ref 21 (Supplementary References)
  % inhibition, GCN5: 40%

## COc1ccc(/C(Cl)=C(/C=O)c2ccc(OC)cc2)cc1 [Compound 18, Windorphen]
GCN5; [4]
  IC50: > 100 µM
PCAF; [6]
  IC50: > 100 µM
CBP
  IC50: 51.3 µM
Five tested HATs
  activity vs. the five tested HATs: minimal activity

## Cl.Cl.O=C(O)Cn1nnc(-c2ccc(CN(CCCCOc3ccc(CN4CCCC4)cc3)CCc3ccccc3)cc2)n1 [Compound 20, TH1834]
Tip60
  IC50: ~500 µM

## CCCC1(c2ccccc2)NC(=O)N(CC(=O)N(C)Cc2c(F)cccc2Cl)C1=O (centres unmarked) [Compound 21, N-[(2-chloro-6-fluorophenyl)methyl]-2-(2,5-dioxo-4-phenyl-4-propylimidazolidin-1-yl)-N-methylacetamide]
GCN5; @ 100 µM, ref 25 (Supplementary References)
  % inhibition, GCN5: < 25%

## Garcinol [Compound 13]
Five tested HATs
  activity vs. the five tested HATs: potent inhibition of at least one HAT

## Plumbagin [Compound 8]
PCAF; @ 50 µM, 23 (Supplementary References)
  % inhibition, PCAF: ~ 50%
